PMC11415492 (Nature Communications, 2024)
Where “and” joins values, the source holds several entries; their conditions need not be identical. Equal entries are not always repeated. Structures can show the parent of a compound that is named as a salt. Where two headings read alike, the source gives them in different places.

Assays:
hKOR = molecular target: T1, hKOR (Homo sapiens, UniProt P41145); test: KOR [35S]GTPγS agonist assay (commercial); type: biochemical; conditions: agonist, n = 1
T1 construct: expressed in transfected cells; host or cells: HEK-293T, transient (PEI)
T1 sequence (P41145 whole entry): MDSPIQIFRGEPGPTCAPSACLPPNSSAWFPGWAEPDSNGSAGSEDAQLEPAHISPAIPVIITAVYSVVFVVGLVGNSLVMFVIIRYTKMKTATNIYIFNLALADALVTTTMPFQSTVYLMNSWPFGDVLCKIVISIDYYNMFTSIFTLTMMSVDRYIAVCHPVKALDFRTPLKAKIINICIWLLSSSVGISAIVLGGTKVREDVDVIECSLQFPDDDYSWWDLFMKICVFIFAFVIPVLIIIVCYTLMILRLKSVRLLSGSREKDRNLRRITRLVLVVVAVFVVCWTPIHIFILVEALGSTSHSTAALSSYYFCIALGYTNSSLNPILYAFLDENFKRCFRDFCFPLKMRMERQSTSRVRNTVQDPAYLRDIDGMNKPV

hSERT = molecular target: T2, hSERT (Homo sapiens, UniProt P31645); test: hSERT inhibition assay (APP+ fluorescence uptake); type: cell-based
T2 construct: expressed in transfected cells
T2 sequence (P31645 whole entry): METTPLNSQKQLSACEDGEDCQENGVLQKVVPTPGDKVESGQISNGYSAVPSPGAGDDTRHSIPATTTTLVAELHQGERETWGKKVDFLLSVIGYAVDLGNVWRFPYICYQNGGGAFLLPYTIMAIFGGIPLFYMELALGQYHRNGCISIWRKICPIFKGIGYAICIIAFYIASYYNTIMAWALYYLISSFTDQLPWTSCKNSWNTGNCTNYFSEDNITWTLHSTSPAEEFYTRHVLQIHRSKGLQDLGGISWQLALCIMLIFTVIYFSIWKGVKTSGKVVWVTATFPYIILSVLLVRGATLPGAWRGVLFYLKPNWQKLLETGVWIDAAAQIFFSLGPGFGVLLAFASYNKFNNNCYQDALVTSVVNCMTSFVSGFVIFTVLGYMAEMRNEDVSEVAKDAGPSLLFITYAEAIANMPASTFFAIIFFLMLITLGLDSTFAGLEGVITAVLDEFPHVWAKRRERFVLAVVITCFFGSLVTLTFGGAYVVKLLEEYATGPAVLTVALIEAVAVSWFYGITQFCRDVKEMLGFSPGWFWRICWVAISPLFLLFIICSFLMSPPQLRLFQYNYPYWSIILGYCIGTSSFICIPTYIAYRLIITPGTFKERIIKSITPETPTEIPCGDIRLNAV
Description: Stably transfected hSERT-HEK cellular cultures were maintained in Dulbecco’s Minimal Essential Medium (DMEM) with GlutaMAX (Gibco-Thermo Fisher Scientific, Waltham, MA) with the following additions: 10% (v/v) Fetal Bovine Serum (FBS, Atlanta Biologicals, Flowery Branch, GA), 100 U/mL Penicillin 10 μg/mL Streptomycin (Gibco-Thermo Fisher Scientific, Waltham, MA), and 500 μg/mL Geneticin (G418) (Sigma Aldrich, St. Louis, MO). Singly transfected cells were seeded at a density of 0.09 × 10^6 cells/well in poly-D-Lysine (Sigma Aldrich, St. Louis, MO) coated white solid-bottom 96-well plates (Greiner Bio-One, Kremsmünster, Austria). Cells were grown for 44 h in aqueous media at 37 °C under 5% CO2 atmosphere. […] A final solution of 120 μL of PBS was finally added to all corresponding wells for cell maintenance before measuring fluorescence uptake (BioTek H1MF plate reader (BioTek Instruments, Winooski, VT), APP+ excitation and emission wavelengths 436 and 500 nm). Recorded inhibitor values were first subtracted from vehicular values to quantify the respective fluorescence uptake. Data were analyzed using the dose-response-inhibitor nonlinear curve fitting model (log[inhibitor] vs response (four parameters) in Graphpad Prism 10 (Graphpad Software, La Jolla, CA).

[1] = Noribogaine clinical dose escalation data (plasma concentration, QT); type: in vivo; conditions: from reported clinical total plasma concentrations and own human plasma protein binding
[2] = Pharmacokinetic study in mice (plasma and brain), with estimated free drug concentrations; type: in vivo, mouse; conditions: for Brain Concentration (total) / Free Brain Concentration / Free Plasma Concentration / Plasma Concentration (total) / concentration at 0.083 h / concentration at 0.25 h / concentration at 0.5 h / concentration at 1 h / concentration at 2 h: mice, individual animals; for Brain Concentration (total) / Free Brain Concentration / Free Plasma Concentration / Plasma Concentration (total) / Total concentration / concentration at 0.083 h / concentration at 0.25 h / concentration at 0.5 h / concentration at 1 h / concentration at 2 h: 10 mg/kg s.c.; for Brain Concentration (total) / Free Brain Concentration / Free Plasma Concentration / Plasma Concentration (total) / concentration at 0.083 h / concentration at 0.25 h / concentration at 0.5 h / concentration at 1 h / concentration at 2 h / Cmax / AUC(0-inf) / AUC(0-t): 10 mg/kg; for Total concentration: Mice; for CLf / T1/2 / Cmax / AUC(0-inf) / AUC(0-t) / Tmax / half-life / Vd/F: male C57BL/6 mice; for concentration at 0.083 h / concentration at 0.25 h / concentration at 0.5 h / concentration at 1 h / concentration at 2 h / Cmax / AUC(0-inf) / AUC(0-t): male, C57BL/6, mouse; for concentration at 0.083 h / concentration at 0.25 h / concentration at 0.5 h / concentration at 1 h / concentration at 2 h / Cmax / AUC(0-inf) / AUC(0-t) / Tmax / half-life / Vd/F: sc; for Tmax / half-life / Vd/F: mouse; for half-life: read-out: T1/2z (converted); for Vd/F: read-out: VZ/F
in vitro = conditions: human, pH 7.4
rat NMDA receptor = test: rat NMDA radioligand displacement ([3H]MK-801); type: binding
hERG potassium channel = molecular target: T3, hERG potassium channel (Homo sapiens, UniProt Q12809); conditions: lit. value; cited from earlier work
T3 construct: purchased contracted research organization (eurofinsdiscoveryservices.com) item 4094
T3 sequence (Q12809 whole entry): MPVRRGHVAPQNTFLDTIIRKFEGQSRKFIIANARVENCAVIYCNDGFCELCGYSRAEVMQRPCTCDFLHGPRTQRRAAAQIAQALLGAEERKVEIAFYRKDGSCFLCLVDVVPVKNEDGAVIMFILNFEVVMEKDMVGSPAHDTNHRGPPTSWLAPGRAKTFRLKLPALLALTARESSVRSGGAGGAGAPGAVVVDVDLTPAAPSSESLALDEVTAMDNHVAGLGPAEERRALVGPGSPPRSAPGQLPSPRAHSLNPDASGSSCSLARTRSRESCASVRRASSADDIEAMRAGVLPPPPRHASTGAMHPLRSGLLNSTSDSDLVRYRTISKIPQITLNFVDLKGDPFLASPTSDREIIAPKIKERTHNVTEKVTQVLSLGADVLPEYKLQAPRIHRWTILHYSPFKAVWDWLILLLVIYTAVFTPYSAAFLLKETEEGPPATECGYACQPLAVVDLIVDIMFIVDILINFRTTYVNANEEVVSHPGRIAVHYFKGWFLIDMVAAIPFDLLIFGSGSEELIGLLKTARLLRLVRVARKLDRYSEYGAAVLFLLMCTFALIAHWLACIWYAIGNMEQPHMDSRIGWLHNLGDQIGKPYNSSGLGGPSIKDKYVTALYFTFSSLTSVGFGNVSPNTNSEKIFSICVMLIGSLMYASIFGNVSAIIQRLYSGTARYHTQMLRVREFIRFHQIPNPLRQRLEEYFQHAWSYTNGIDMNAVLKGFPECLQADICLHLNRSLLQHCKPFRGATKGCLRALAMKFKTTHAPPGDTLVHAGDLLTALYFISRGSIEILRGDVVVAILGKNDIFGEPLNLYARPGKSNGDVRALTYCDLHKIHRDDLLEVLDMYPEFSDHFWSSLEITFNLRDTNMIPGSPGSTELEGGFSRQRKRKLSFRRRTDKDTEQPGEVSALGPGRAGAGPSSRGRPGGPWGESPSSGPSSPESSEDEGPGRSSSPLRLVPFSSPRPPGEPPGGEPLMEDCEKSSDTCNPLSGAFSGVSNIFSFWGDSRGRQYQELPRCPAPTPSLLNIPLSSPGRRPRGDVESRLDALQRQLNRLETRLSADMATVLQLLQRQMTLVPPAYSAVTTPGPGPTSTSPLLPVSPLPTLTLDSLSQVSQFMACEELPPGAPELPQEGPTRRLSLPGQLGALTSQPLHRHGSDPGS

[3] = molecular target: T4, human nicotinic acetylcholine receptor (nAChR α3β4) (Homo sapiens, UniProt P30926+P32297); test: nAChR α3β4 inhibition, electrophysiology (commercial); type: cell-based
T4 construct: purchased contracted research organization (eurofinsdiscoveryservices.com) item CYL8057IF2
T4 sequence (P32297 32-505): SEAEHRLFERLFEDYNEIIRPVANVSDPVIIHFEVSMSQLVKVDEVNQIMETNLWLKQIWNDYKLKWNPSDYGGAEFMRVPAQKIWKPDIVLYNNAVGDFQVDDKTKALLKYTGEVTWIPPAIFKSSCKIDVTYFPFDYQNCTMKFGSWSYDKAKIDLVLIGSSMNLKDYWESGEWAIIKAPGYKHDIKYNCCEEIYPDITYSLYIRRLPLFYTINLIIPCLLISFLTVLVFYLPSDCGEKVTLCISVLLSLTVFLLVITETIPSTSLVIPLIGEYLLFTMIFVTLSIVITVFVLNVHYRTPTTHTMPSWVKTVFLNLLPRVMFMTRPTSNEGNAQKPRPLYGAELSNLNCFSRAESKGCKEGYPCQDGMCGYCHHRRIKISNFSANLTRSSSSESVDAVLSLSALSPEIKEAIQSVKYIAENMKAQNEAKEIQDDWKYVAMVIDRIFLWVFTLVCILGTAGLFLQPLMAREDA
T4 sequence (P30926 22-498): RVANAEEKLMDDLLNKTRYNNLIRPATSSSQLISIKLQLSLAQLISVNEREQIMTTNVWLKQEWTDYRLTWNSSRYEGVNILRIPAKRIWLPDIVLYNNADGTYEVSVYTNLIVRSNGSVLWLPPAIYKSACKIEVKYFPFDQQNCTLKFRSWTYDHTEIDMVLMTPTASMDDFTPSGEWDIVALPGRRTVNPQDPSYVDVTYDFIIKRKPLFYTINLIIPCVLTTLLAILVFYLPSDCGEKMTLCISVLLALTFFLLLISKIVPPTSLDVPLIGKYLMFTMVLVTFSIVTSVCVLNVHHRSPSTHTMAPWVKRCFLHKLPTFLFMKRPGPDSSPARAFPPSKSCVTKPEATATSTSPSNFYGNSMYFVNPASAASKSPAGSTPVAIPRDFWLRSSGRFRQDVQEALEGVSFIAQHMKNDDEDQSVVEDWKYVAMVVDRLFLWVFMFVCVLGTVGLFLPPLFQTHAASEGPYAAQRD

hNOP = molecular target: T5, hNOP (Homo sapiens, UniProt P41146); test: human NOP (Orphanin ORL1) radioligand displacement; type: binding
T5 construct: purchased contracted research organization (eurofinsdiscoveryservices.com) item 260600
T5 sequence (P41146 whole entry): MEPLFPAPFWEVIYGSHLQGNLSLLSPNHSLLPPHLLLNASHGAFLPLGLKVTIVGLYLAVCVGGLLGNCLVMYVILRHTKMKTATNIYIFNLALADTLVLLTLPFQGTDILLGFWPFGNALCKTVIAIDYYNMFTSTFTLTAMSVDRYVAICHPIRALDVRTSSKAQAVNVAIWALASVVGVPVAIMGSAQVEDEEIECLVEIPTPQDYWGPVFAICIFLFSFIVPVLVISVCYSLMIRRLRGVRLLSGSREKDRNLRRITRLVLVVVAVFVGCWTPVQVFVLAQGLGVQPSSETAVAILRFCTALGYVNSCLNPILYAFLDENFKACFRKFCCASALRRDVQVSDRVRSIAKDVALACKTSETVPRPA

## CCC1CC2CC3c4[nH]c5ccc(O)cc5c4CCN(C2)C13 (stereo not drawn) [Noribogaine, Noribogaine hydrochloride]
hKOR
  Emax: 73%
hKOR; (95% CI)
  EC50: 8.33 µM
hSERT
  Emax: 104%
[1]; 60 mg oral dose, mild QT effect
  estimated free plasma noribogaine Cmax: approximately 100 nM
[1]; 180 mg oral dose
  estimated free plasma noribogaine Cmax: 300 to 400 nM
[2]; 0.083 h
  Brain Concentration (total): 6.61 µmol/L and 8.95 µmol/L
  Free Brain Concentration: 0.78 µmol/L and 1.057 µmol/L
  Free Plasma Concentration: 2258 nM and 2308 nM and 1083 nM
  Plasma Concentration (total): 4.83 µmol/L and 2.26 µmol/L and 4.72 µmol/L
[2]; 0.25 h
  Brain Concentration (total): 14.1 µmol/L and 14.82 µmol/L
  Free Brain Concentration: 1.664 µmol/L and 1.749 µmol/L
  Free Plasma Concentration: 2314 nM and 3247 nM
  Plasma Concentration (total): 6.79 µmol/L and 6.1 µmol/L
[2]; 0.5 h
  Brain Concentration (total): 18.56 µmol/L and 18.39 µmol/L
  Free Brain Concentration: 2.19 µmol/L and 2.17 µmol/L
  Free Plasma Concentration: 2561 nM and 3671 nM
  Plasma Concentration (total): 7.68 µmol/L and 6.99 µmol/L
[2]; 1 h
  Brain Concentration (total): 11.3 µmol/L and 11.04 µmol/L
  Free Brain Concentration: 1.334 µmol/L and 1.303 µmol/L
  Free Plasma Concentration: 1924 nM and 1899 nM
  Plasma Concentration (total): 3.97 µmol/L and 4.11 µmol/L
[2]; 2 h
  Brain Concentration (total): 4.77 µmol/L and 6.38 µmol/L
  Free Brain Concentration: 0.563 µmol/L and 0.752 µmol/L
  Free Plasma Concentration: 1638 nM and 938 nM
  Plasma Concentration (total): 1.96 µmol/L and 2.67 µmol/L
[2]; 4 h
  Brain Concentration (total): 2.93 µmol/L and 1.78 µmol/L and 5.54 µmol/L
  Free Brain Concentration: 0.346 µmol/L and 0.211 µmol/L and 0.654 µmol/L
  Free Plasma Concentration: 1067 nM and 684 nM and 289 nM
  Plasma Concentration (total): 1.43 µmol/L and 0.61 µmol/L and 2.23 µmol/L
[2]; 8 h
  Brain Concentration (total): 0.81 µmol/L and 0.72 µmol/L and 0.21 µmol/L
  Free Brain Concentration: 0.095 µmol/L and 0.085 µmol/L and 0.024 µmol/L
  Free Plasma Concentration: 47 nM and 125 nM and 114 nM
  Plasma Concentration (total): 0.26 µmol/L and 0.24 µmol/L and 0.1 µmol/L
[2]; 24 h
  Brain Concentration (total): 0.03 µmol/L and 0 µmol/L (2×)
  Free Brain Concentration: 0.004 µmol/L and 0 µmol/L (2×)
  Free Plasma Concentration: 2 nM and 4 nM and 0 nM
  Plasma Concentration (total): 0.01 µmol/L and 0 µmol/L (2×)
[2]; Brain
  Total concentration: 17.18 µmol/L
[2]; Brain, single s.c. 10 mg/kg
  CLf: 13.76 mL/min/kg
  T1/2: 1.71 h
[2]; Plasma
  Total concentration: 6.68 µmol/L
[2]; Plasma, single s.c. 10 mg/kg
  CLf: 31.87 mL/min/kg
  T1/2: 2.76 h
[2]; brain, s.c. 10 mg/kg
  CLf: 13.76 mL/min/kg
  AUC(0-inf): 12100 ng·h/mL
  AUC(0-t): 11700 ng·h/mL
  Cmax: 5090 ng/g
  Tmax: 0.5 h
  half-life: 1.71 h
  Vd/F: 2.04 L/kg
[2]; brain, 0.083 h, read-out: Brain Concentration (total)
  concentration at 0.083 h: 6750 nM
[2]; brain, 0.083 h, read-out: Free Brain Concentration
  concentration at 0.083 h: 797 nM
[2]; brain, 0.25 h, read-out: Brain Concentration (total)
  concentration at 0.25 h: 8040 nM
[2]; brain, 0.25 h, read-out: Free Brain Concentration
  concentration at 0.25 h: 949 nM
[2]; brain, 0.5 h, read-out: Brain Concentration (total)
  concentration at 0.5 h: 14600 nM
[2]; brain, 0.5 h, read-out: Free Brain Concentration
  concentration at 0.5 h: 1720 nM
[2]; brain, 1 h, read-out: Brain Concentration (total)
  concentration at 1 h: 11700 nM
[2]; brain, 1 h, read-out: Free Brain Concentration
  concentration at 1 h: 1380 nM
[2]; brain, 2 h, read-out: Brain Concentration (total)
  concentration at 2 h: 7820 nM
[2]; brain, 2 h, read-out: Free Brain Concentration
  concentration at 2 h: 923 nM
[2]; brain, Brain (brain conc. as ng/g), single s.c. 10 mg/kg
  Cmax: 5090 ng/mL
[2]; brain, single s.c. 10 mg/kg
  AUC(0-inf): 12100 ng·h/mL
  AUC(0-t): 11700 ng·h/mL and 39.4 µM·h
  Cmax: 17200 nM
[2]; plasma, 0.25 h, read-out: Free Plasma Concentration
  concentration at 0.25 h: 2910 nM
[2]; plasma, 0.25 h, read-out: Plasma Concentration (total)
  concentration at 0.25 h: 4840 nM
[2]; plasma, 0.5 h, read-out: Free Plasma Concentration
  concentration at 0.5 h: 3340 nM
[2]; plasma, 0.5 h, read-out: Plasma Concentration (total)
  concentration at 0.5 h: 5360 nM
[2]; plasma, 1 h, read-out: Free Plasma Concentration
  concentration at 1 h: 1960 nM
[2]; plasma, 1 h, read-out: Plasma Concentration (total)
  concentration at 1 h: 4030 nM
[2]; plasma, 2 h, read-out: Free Plasma Concentration
  concentration at 2 h: 1280 nM
[2]; plasma, 2 h, read-out: Plasma Concentration (total)
  concentration at 2 h: 3430 nM
[2]; plasma, s.c. 10 mg/kg
  AUC(0-inf): 5230 ng·h/mL
  AUC(0-t): 5220 ng·h/mL
  Cmax: 1980 ng/mL
  Tmax: 0.5 h
  half-life: 2.76 h
  Vd/F: 7.62 L/kg
  CLf: 31.87 mL/min/kg
[2]; plasma, single s.c. 10 mg/kg
  AUC(0-inf): 5230 ng·h/mL
  AUC(0-t): 5220 ng·h/mL and 17.6 µM·h
  Cmax: 1980 ng/mL and 6.68 µM
In vitro
  recovery at 4 h, 5 µM: 75%
In vitro; plasma
  fraction unbound: 0.401
Rat NMDA receptor
  IC50: 42 µM
Rat NMDA receptor; 1.00E-04 M
  NMDA receptor radioligand displacement, concentration-response point (Fig. S3c): 73
Rat NMDA receptor; 1.00E-05 M
  NMDA receptor radioligand displacement, concentration-response point (Fig. S3c): 14
Rat NMDA receptor; 1.00E-06 M
  NMDA receptor radioligand displacement, concentration-response point (Fig. S3c): 5
Rat NMDA receptor; 2.15E-05 M
  NMDA receptor radioligand displacement, concentration-response point (Fig. S3c): 32
Rat NMDA receptor; 4.64E-05 M
  NMDA receptor radioligand displacement, concentration-response point (Fig. S3c): 53
Rat NMDA receptor; [3H]MK-801 displacement, n = 1
  IC50: 42.2 µM
hERG potassium channel
  Ki: 2 µM
[3]
  IC50: 5 µM
[3]; electrophysiology, n = 1, (95% CI)
  IC50: 4.96 µM
hNOP; at 10 µM, n = 1
  % displacement at 10 µM: < 0%
hNOP; up to 10 µM
  binding affinity for nociceptin receptor (ORL-1/NOP): No binding affinity
